From ChEMBL document CHEMBL3507680, “University of Dundee, Gates Library screen for HepG2 cell viability”

Assay: Human HepG2 cell viability assay in 384 well format
Format: toxicity, cell-based
Set-up: dose 125 nL, time 70.5 hour; concentration not given beside the values
Details: HepG2 cells, read-out: Inhibition

Structure (SMILES) | cytotoxicity at 70.5 h
CC(NC(=O)c1ccoc1)c1ccc2c(c1)CCC(=O)N2 (configuration not stated) | -0.0886%
CC(=O)NCCC(=O)NCCCOc1c(C)cccc1C | -6.31%
O=C(CCCc1cn[nH]c1)N1C[C@@H](CN2CCOCC2)[C@@H](CO)C1 | 17.7%
CS(=O)(=O)N[C@@H]1CCO[C@]2(CCN(CC3CCOCC3)C2)C1 | -5.05%
CCc1nc(C)c([C@H]2CN(C)C[C@@H]2C(=O)Nc2cccc3cn[nH]c23)[nH]1 | -5.72%
O=C(c1cccc2ncccc12)N1CCCC(n2ccnc2)C1 (configuration not stated) | -2.04%
CC1CN(C(=O)CN(Cc2ccccc2Br)C2CC2)CCO1 (configuration not stated) | -0.289%
Cn1cc(CNCCn2cccn2)c(-c2cccnc2)n1 | -4.81%
Cn1cccc1C(=O)N1C[C@@H](OCc2ccncc2)[C@@H]2OCCC[C@@H]21 | -1.09%
COc1cccc(CN(C)C(=O)CSc2ccc3c(c2)OCCO3)c1 | -4.28%
Cn1nnc2cc(C(=O)NS(=O)(=O)Cc3ccc(F)cc3)ccc21 | -12.6%
CN1CCN(C(=O)c2ccc3c(c2)nc(N2CCOCC2)n3C)CC1=O | -5.46%
CCOC(C)c1noc(CN(C)C(=O)c2ccncc2)n1 (configuration not stated) | 0.244%
CCc1cc(NCCNc2cccnc2)n2nccc2n1 | -7.64%
Cc1csc(NC(=O)CN2CCC(c3ccnn3CCO)CC2)n1 | 33.6%
O[C@@H]1C[C@@H](c2nc(Cc3ccccc3)no2)N(Cc2ccc(F)cc2)C1 | -19.1%
Cc1ccc(CNC(=O)NCc2ccco2)s1 | -24.6%
COCCC(=O)N1CCC2(CC1)CC(c1ccccc1)CN(C)C2 (configuration not stated) | -5.14%
COc1ccc(C2CCCN2c2cnc3ccccc3n2)c(OC)c1 (configuration not stated) | -4.21%

Structure (SMILES) | cytotoxicity at 70.5 h
COCCn1cnc2ccc(NC(=O)c3ccccn3)cc2c1=O | -9.53%
Cc1cc(C)c2[nH]c(CN3CCCC(N4CCOCC4)C3)cc(=O)c2c1 (configuration not stated) | -5.41%
COC(C)C(=O)NS(=O)(=O)c1ccc(F)c(C(F)(F)F)c1 (configuration not stated) | -12.6%
CC(NC(=O)N(C)CCCOc1ccc(F)cc1)c1nncn1C (configuration not stated) | -1.45%
CN(CCc1ccncc1)C1CCCN(Cc2noc(C3CC3)n2)C1 (configuration not stated) | -2.71%
CN(c1nc(Cn2cnccc2=O)cs1)C1CC1 | -4.18%
O=C1CCCN1Cc1nnc2n1CCN(Cc1ccco1)CC2 | -1.59%
O=C(Cn1cccn1)N1CCC(Oc2cnccn2)CC1 | -6.46%
COc1ccc(CCNC(=O)NCc2cccc(C(N)=O)c2)cc1OC | -15%
Cc1ccc(N2C(=O)N[C@@H]3CCN(C(=O)C4CC4)[C@@H]3C2=O)cc1 | -15.3%
CCC(Nc1ccc(CCN2CCCCC2)cc1)C(N)=O (configuration not stated) | -8.14%
COc1coc(C(=O)Nc2nc(-c3ccccn3)cs2)cc1=O | -7.13%
Cc1ccc(N(CCC#N)C(=O)CN2CCCC2c2cccs2)cc1 (configuration not stated) | -2.42%
CN1CCC2(C=C(C(=O)N3CCCC3)c3ccccc32)CC1 | 1.49%
CC(=O)N(C)Cc1nn(C)c2c1CN(Cc1ccsc1)C2 | -6.65%
Cc1nc(O)ccc1C(=O)N1CCCC1c1nc(-c2ccccc2)n[nH]1 (configuration not stated) | 0.447%
O=C(NCc1nnc2n1CCC2)c1cccc(Br)c1 | -9.88%
CC(NC(=O)CSCC#N)c1ccccc1 (configuration not stated) | 6.84%
O=C(NCc1ccoc1)c1ccc(C2CCCN2CC2CCOCC2)s1 (configuration not stated) | 38.9%

Structure (SMILES) | cytotoxicity at 70.5 h
O=C(c1csc(-c2ncccn2)n1)N1CCN2CCCCC2C1 (configuration not stated) | -5.52%
CS(=O)(=O)N1CC[C@]2(O)CCN(c3cc(C#N)ccn3)C[C@@H]2C1 | -11.9%
CC(C)COc1cncc(NCCc2nnc3ccccn23)n1 | -4.15%
CC(c1ccccn1)N(C)C(=O)NCCn1c(=O)oc2ccccc21 (configuration not stated) | 6.82%
Cc1nc(CN2CCN(C(=O)C(c3ccccc3C)N(C)C)CC2)no1 (configuration not stated) | -7.12%
CC(=O)N1CCN(C(=O)CCc2cc(Br)cs2)CC1 | -3.42%
CN(CC(C)(C)O)C(=O)Nc1ccc(F)c(-n2cccc2)c1 | -9.2%
CSc1c[nH]nc1NS(=O)(=O)c1cc(F)ccc1Cl | -0.455%
O=C(c1cc[nH]n1)N1CCCC(c2cccc(-n3ccnc3)n2)C1 (configuration not stated) | -10.3%
CCOCCN1CCN(CCc2ccc3c(c2)CCO3)CC1 | 12.7%
C1CC(c2noc(C3CC3)n2)CN(Cc2noc(C3CC3)n2)C1 (configuration not stated) | -7.62%
Cc1ccc2cccc(C(=O)N3CCN(c4cccnn4)CC3)c2n1 | -9.4%
CCCN1CCC(Cc2noc(-c3cc4cccnc4nc3C)n2)CC1 | 0.578%
CS(=O)(=O)Nc1cccc(CNC(=O)CCNC(=O)c2cccs2)c1 | 23.6%
Cn1ncc2c1CN(Cc1ccccc1F)CC2COCC1CC1 (configuration not stated) | 23.7%
CC(C)c1nnc2n1CCN(C(=O)c1cc(Cl)c[nH]1)C2 | 0.408%
Cc1cccc(Cn2cc(C)c(N)n2)c1 | -1.64%
CC(C)(C)c1cc(NC(=O)CN(Cc2ccco2)Cc2cccs2)on1 | 4.01%
O=S1(=O)CCC(c2nnc(-c3cnc4onc(C5CCCC5)c4c3)o2)C1 (configuration not stated) | 20.9%
